Data: patent US20240122894A1, “METHODS TO SYNTHESIZE FLAVONOID DIMERS AND OLIGOMERS AND THE USE THEREOF” (National University of Singapore, priority 2020, published 2024)

Assays:
[1] = test system: Aspergillus niger ATCC 16888; test: Antifungal activity, radial growth technique on PDA medium; assay type: cell-based; conditions: ATCC16888, read-out: IC50, inhibition of the growth of A. niger
Description: The antifungal activity was evaluated against two fungi, Aspergillus niger ATCC 16888 and Botrytis cinerea ATCC 11542, isolated and identified with ITS gene (GenBank accession number AY373852, A. S. Taha et al., BioResources 2019, 14, 6025-6046). The bioassay was evaluated using the radial growth technique method (P. Wayne, Reference method for broth dilution antifungal susceptibility testing of yeasts, approved standard. CLSI document M27-A2, 2002). Both fungal strains were cultivated aerobically on PDA medium at 25° C. for 14 days. The fungal spores were collected with sterile cotton swabs and suspended in sterile water, and the concentrations were adjusted according to the requirements of the antifungal assays to be performed.
Flavonoids oligomers were dissolved in DMSO ([…]), then transferred into sterilized warm PDA medium (40 to 45° C.) to achieve a final concentration of 1.0 mg/mL, 0.6 mg/mL and 0.4 mg/mL, before immediately pouring into 24-well sterile plastic microtitration plates containing flat-bottomed wells (Corning Incorporated, costar). […]
From a 7-day-old colony, the fungus with discs of 9 mm diameter was transferred to the center of the treated PDA plates and controls. […] All the tested concentrations, as well as positive and negative controls, were measured in triplicate.

[2] = test system: blood glucose; test: Glycemic response of mice after starch gavage; assay type: in vivo
Description: A 10% (w/v) starch solution was prepared by addition of distilled water to reagent grade corn starch and heating the solution it in a boiling water bath for about 15 minutes until it was completely gelatinized. 8-week-old male wild-type C57BL/6J mice were fasted overnight (free water intake), and weighed the next day. The tail of the mice was trimmed and the blood was taken for measurement of fasting blood glucose concentration with a Roche blood glucose meter. Feeding method a, “YX2+Starch”: Luteolin dimer (2a) was gavaged as a 2 mg/mL water solution, at the dosage level of 20 mg/kg body weight of the animal. Thirty minutes later, the 10% (w/v) starch solution was gavaged at 1 g/kg body weight. Feeding method b, “Starch (+YX2)”: Luteolin dimer (2a) was mixed with starch at 0.2% ratio by dried weight and mixed with water (1:9 by weight) to give a slurry labelled as Starch (+YX2) (FIG. 41). The mixture was gavaged to mice at with 1 g/kg body weight. In comparison, luteolin (1a or YX1) was mixed with starch at 0.2% by weight. The resulting mixture was further mixed with water to give 10% starch slurry labelled as starch (+YX1) (FIG. 41). The mice were gavaged with 1 g/kg body weight. The blood glucose values were measured at 30, 60, 90, 120 minutes to make the blood glucose curve, GraphPad draws the blood glucose response curve after meal, and the area under the curve was calculated.

[3] = biological target: T1, α-amylase (Sus scrofa, UniProt P00690); test: High-throughput starch hydrolase inhibition assay (turbidity, corn starch); assay type: biochemical
T1 sequence (P00690 16-511): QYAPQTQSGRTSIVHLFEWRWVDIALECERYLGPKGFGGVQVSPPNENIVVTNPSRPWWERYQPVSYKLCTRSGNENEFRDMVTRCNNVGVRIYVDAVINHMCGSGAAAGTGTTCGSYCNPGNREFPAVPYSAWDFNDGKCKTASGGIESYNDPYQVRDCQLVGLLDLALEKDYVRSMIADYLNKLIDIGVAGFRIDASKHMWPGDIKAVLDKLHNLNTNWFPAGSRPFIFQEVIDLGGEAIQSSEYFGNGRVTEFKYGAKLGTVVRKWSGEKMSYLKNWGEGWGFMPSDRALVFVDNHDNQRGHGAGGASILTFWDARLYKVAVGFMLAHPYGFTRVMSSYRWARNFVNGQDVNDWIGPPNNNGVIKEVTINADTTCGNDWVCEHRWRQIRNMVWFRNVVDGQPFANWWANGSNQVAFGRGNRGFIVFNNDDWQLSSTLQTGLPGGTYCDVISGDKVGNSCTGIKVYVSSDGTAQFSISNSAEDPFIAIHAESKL
Description: (§1) The inhibitory activity of each fraction obtained on α-amylase and α-glucosidase were determined using the turbidity measurement according to a reported method (Liu, Song, Wang, & Huang, 2011, Journal of agricultural and food chemistry 2011 Vol. 59 Issue 18 Pages 9756-9762). Corn starch (20 mg/mL) was suspended in sodium phosphate buffer (0.1 M, pH 6.9) and gelatinized at 100° C. for 2.5 min. The inhibitor solution was diluted in buffer to appropriate concentrations. Acarbose was used as a positive control and a reference standard. α-amylase solution (2 U/mL in buffer, 20 μL) or α-glucosidase solution (1×10−2 U/mL in buffer) was pre-incubated with inhibitor solution (20 μL) with series of concentrations in a 96-well microplate and kept at 37° C. for 15 min. The reaction was initiated by injecting 60 μL of the gelatinized corn starch solution. The turbidity changes were recorded at 660 nm every minute for 2 h using a Synergy HT microplate reader (Biotek Instruments Inc., Winooski, VT, USA). The inhibition percentage was calculated using Equation 10.
(§2) Inhibition (%)=(AUCsample−AUCcontrol)/AUCsample×100% (Equation 10)
(§3) Where AUCsample is the area under the inhibitory curve and AUCcontrol is the area under the curve negative control. The IC50 can be defined as the concentration of an inhibitor that produces 50% inhibition of enzyme activity under a specified assay condition. It was obtained from interpolation of percentage of inhibition against inhibitor concentration curve. In order to avoid run-to-run error due to fluctuation of enzymatic activity, the acarbose equivalent (AE) was used to express the inhibitory activity of sample based on the following equation:
(§4) AE of a sample=IC50 of acarbose/IC50 of a sample (Equation 11)

[4] = test system: α-glucosidase; test: as above; assay type: biochemical
Description: as §1, §2, §3, §4

[5] = Determination of pKa values by 13C NMR spectroscopy under argon; assay type: physicochemical
Description: Luteolin (200 mg) was added in the three-necks round bottle flask fitted with a pH meter under argon (FIG. 12). Degassed water (20 mL) was added with stirring. To the solution, degassed aqueous KOH solution was injected through a syringe to adjust the pH. Aliquots (500 μL) of samples at a given pH value were transferred to 5 mm NMR tubes (Armar Chemicals, Switzerland). To the same NMR tube, deuterium oxide (D20, 5.0 μL) was added introduced for deuterium lock and a DMSO-d6 solution encapsulated in capillary tube (FIG. 12) was placed in the tube as the external standard for (at 2.50 ppm for CD3SOCD3, H. E. Gottlieb, V. Kotlyar & A. Nudelman, J. Org. Chem. 1997, 62, 7512-7515). The spectra were recorded and analyzed with MestReNova (Mestrelab research, version 5.2.5-4119). The resulting sigmoidal curve was subjected to nonlinear curve fitting using Prism® (GraphPad, version 5.0b and 5.0f). The dissociation constant pKa was calculated using the Henderson-Hasselback equation (Equation 1-4).
Where LH4, LH3^−, LH2^2−, LH^3− and L^4− are the species of luteolin in fully protonated form, first deprotonated, second deprotonated, third deprotonated 100% deprotonated form.
The chemical shift of the carbons in luteolin is dependent on the relative concentrations of the conjugate pair. For a solution at pH within pKa1 range, and the species in solution is ˜100% protonated (LH4), and the chemical shifts are that of the protonated species, δlow−1. For a solution at a higher pH the species in solution is first deprotonated (LH3^−), and the chemical shifts are that of the deprotonated species, δhigh−1.
Equation 7-8 were applied to determine the mole fraction of conjugate pair from chemical shift of a specific carbon. The assignment of ^13C NMR of luteolin was further confirmed by HSQC and HMBC methods with 2D correlation with ^1H NMR.

[6] = literature (Electrochim. Acta 2013); cited from earlier work
[7] = Solubility in water (observation); assay type: physicochemical; conditions: in water or slightly basic aqueous solution
[8] = 0.2% mixture of compound in starch, gavaged at 1 g/kg body weight

| IC50 [1] [nM] | activity in inhibiting α-amylase compared with acarbose [3] | activity in inhibiting α-glucosidase compared with acarbose [4] | Compound | glycemic response ([2]; 20 mg/kg by gavage 30 minutes before starch at 1 g/kg body weight (curve YX2+starch)) | glycemic response [2, 8] | glycemic response ([2]; mice fed only with compound at 20 mg/kg body weight, no starch) | pKa3 ([5]; C(3′)-OH) | pKa2 ([5]; C(4′)-OH) | pKa4 ([5]; C(5)-OH) | pKa1 ([5]; C(7)-OH, first deprotonation) | pKa1, literature values [6] | solubility [7] |
| --- | --- | --- | --- | --- | --- | --- | --- | --- | --- | --- | --- | --- |
| 860 | comparable | comparable | O=c1cc(-c2ccc(O)c(O)c2-c2c(O)cc3oc(-c4ccc(O)c(O)c4)cc(=O)c3c2O)oc2cc(O)cc(O)c12 [Compound 2a, 6-(6-(5,7-dihydroxy-4-oxo-4H-chromen-2-yl)-2,3-dihydroxyphenyl)-2-(3,4-dihydroxyphenyl)-5,7-dihydroxy-4H-chromen-4-one] | no glycemic response | comparable to that of the mice fed only with same dose of starch | did not lead to glycemic response | – | – | – | – | – | – |
| – | even higher | even higher | O=c1cc(-c2ccc(O)c(O)c2-c2c(O)cc3oc(-c4ccc(O)cc4)cc(=O)c3c2O)oc2cc(O)cc(O)c12 [Compound 2b, 6-(6-(5,7-dihydroxy-4-oxo-4H-chromen-2-yl)-2,3-dihydroxyphenyl)-5,7-dihydroxy-2-(4-hydroxyphenyl)-4H-chromen-4-one] | – | – | – | – | – | – | – | – | – |
| 960 | – | – | O=c1cc(-c2ccc(O)c(O)c2-c2c(O)cc3oc(-c4ccc(O)c(O)c4-c4c(O)cc5oc(-c6ccc(O)c(O)c6)cc(=O)c5c4O)cc(=O)c3c2O)oc2cc(O)cc(O)c12 [Compound 3a, 6-(6-(5,7-dihydroxy-4-oxo-4H-chromen-2-yl)-2,3-dihydroxyphenyl)-2-(2-(2-(3,4-dihydroxyphenyl)-5,7-dihydroxy-4-oxo-4H-chromen-6-yl)-3,4-dihydroxyphenyl)-5,7-dihydroxy-4H-chromen-4-one] | – | – | – | – | – | – | – | – | – |

| Compound | IC50 [1] [nM] | activity in inhibiting α-amylase compared with acarbose [3] | activity in inhibiting α-glucosidase compared with acarbose [4] | glycemic response ([2]; 20 mg/kg by gavage 30 minutes before starch at 1 g/kg body weight (curve YX2+starch)) | glycemic response [2, 8] | glycemic response ([2]; mice fed only with compound at 20 mg/kg body weight, no starch) | pKa3 ([5]; C(3′)-OH) | pKa2 ([5]; C(4′)-OH) | pKa4 ([5]; C(5)-OH) | pKa1 ([5]; C(7)-OH, first deprotonation) | pKa1, literature values [6] | solubility [7] |
| --- | --- | --- | --- | --- | --- | --- | --- | --- | --- | --- | --- | --- |
| O=c1cc(-c2ccc(O)c(O)c2)oc2cc(O)cc(O)c12 [luteolin] | – | no activity | – | – | almost the same as that of the mice fed only with same dosage of starch | – | 12.78 | 8.93 | 13.03 | 8.00 | ~6.0 | poor solubility |
